Assay results reported in US20210147381A1, “1,2,3,4-SUBSTITUTED QUINOLINE COMPOUNDS AS SIP MODULATORS” (AbbVie Deutschland GmbH & Co. KG, priority 2017, published 2021).
Structures can show the parent of a compound that is named as a salt.

Experiments:
Format in all cases: cell-based
[1] = target: T1, human S1P5 receptor (S1PR5) (Homo sapiens, UniProt Q9H228); test: Intracellular Ca2+ release (method 1), agonist potency and efficacy, S1P5; settings: for Emax: maximum effect in % of reference agonist phospho-fingolimod (100%), read-out: hS1P5 EMax; for EC50: recombinant CHO-K1 cells expressing human S1PR5, aequorin, Gq/i5, Ca2+ release, read-out: S1P5 EC50 range
T1 construct: host or cells: CHO-K1
T1 sequence (Q9H228 whole entry): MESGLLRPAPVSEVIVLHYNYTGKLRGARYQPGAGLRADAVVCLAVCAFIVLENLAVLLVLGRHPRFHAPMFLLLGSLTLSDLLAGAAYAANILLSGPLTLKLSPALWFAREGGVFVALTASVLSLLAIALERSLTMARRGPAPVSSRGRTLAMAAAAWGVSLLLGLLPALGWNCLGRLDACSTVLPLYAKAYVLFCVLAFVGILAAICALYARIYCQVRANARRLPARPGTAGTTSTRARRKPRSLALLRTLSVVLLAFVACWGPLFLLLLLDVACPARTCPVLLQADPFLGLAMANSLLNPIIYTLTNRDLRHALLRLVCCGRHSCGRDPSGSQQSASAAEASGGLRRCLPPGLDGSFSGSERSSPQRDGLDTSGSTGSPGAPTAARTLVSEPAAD
In short: (§1)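 CHO-K1 cells co-expressing the human S1P receptor, aequorin and Gq/i5 were loaded with Calcium 5 dye (1 h, 37° C), then equilibrated 45 min at RT in HBSS/20 mM Hepes/2.5 mM probenecid/0.1% BSA, pH 7.4. Fluorescence upon serially diluted compound fitted by 4-parameter logistic; EC50 and Emax normalized to phospho-fingolimod (100%).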

[2] = target: T2, human S1P1 receptor (S1PR1) (Homo sapiens, UniProt P21453); test: Intracellular Ca2+ release (method 1), agonist potency, S1P1; settings: CHO-K1 cells expressing human S1PR1
T2 construct: host or cells: CHO-K1
T2 sequence (P21453 whole entry): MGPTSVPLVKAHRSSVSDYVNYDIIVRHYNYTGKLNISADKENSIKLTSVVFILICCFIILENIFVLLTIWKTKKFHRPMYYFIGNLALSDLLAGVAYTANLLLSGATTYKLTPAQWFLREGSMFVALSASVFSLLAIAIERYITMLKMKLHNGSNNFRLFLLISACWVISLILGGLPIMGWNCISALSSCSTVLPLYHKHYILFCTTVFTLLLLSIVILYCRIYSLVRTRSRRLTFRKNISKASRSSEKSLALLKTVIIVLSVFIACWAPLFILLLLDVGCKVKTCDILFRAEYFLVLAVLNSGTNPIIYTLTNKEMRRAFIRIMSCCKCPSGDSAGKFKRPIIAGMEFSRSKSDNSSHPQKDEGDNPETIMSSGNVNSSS
In short: as §1

[3] = target: T3, human S1P3 receptor (S1PR3) (Homo sapiens, UniProt Q99500); test: Intracellular Ca2+ release (method 1), agonist potency, S1P3; settings: CHO-K1 cells expressing human S1PR3
T3 construct: host or cells: CHO-K1
T3 sequence (Q99500 whole entry): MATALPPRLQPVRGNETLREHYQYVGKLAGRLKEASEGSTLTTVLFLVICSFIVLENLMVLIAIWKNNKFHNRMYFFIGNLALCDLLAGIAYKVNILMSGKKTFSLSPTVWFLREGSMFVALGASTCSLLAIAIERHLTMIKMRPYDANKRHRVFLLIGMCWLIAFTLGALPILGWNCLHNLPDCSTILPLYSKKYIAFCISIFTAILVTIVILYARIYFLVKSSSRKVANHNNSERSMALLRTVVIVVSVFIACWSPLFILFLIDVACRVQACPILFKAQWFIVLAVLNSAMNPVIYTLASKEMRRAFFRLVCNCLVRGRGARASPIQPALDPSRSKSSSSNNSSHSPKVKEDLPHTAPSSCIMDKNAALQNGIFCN
Procedure: Agonistic activity and efficacy of compounds was assessed in recombinant cells using method 1 described below.
Agonist potency and efficacy were assessed by measurement of intracellular Ca^2+ release. Recombinant CHO-K1 cells (Euroscreen, Brussels, Belgium) expressing human S1PR5, S1PR1, S1PR3 or S1PR4 receptors, aequorin, and GTP binding protein Gq/i5 were cultured using a medium containing nutrient mixture F-12 Ham (Sigma-Aldrich) with 10% FBS, and 100 μg/mL gentamicin and equilibrated at 5% CO2.
15,000 cells in 20 μL medium were seeded into Biocoat poly-D-Lysine coated 384 well plates (Becton Dickinson #35-6663) and grown to 95% confluency after 24 h.
Culture medium was replaced by an assay buffer consisting of HBBS with Ca^2+ and Mg^2+ (Invitrogen #14025-050), 20 mmol/L Hepes (Sigma-Aldrich #H-3375), 2.5 mmol/L probenecid (Sigma-Aldrich #P-8761, and 0.1% BSA (Sigma-Aldrich #A-7030) pH 7.4. The Calcium 5 no-wash FLIPR assay kit (Molecular Devices #5000625) was performed as described in the kit instructions. Cells were incubated with Calcium 5 dye for 1 h at 37° C., 5% CO2 in the dark. After 45 min adaptation to RT assessment of agonist stimulation of intracellular Ca^2+ release was performed by addition of test compounds at various concentrations obtained by serial dilution. Phospho-fingolimod was used as positive control and reference agonist (intrinsic activity 100%).
Agonism of test compounds at the human S1Px receptors were characterized by the EC50 values (potencies) deduced from a nonlinear 4 parametric logistic curve fit to the measured fluorescence data after normalization to the lower and upper plateaus of the fitted reference agonist's (phospho-fingolimod)effect curve and by their efficacy (Emax) values represented by their maximum achievable effects in % of the reference agonist's efficacy, which is defined as an Emax of 100%.

[4] = target: T4, human S1P4 receptor (S1PR4) (Homo sapiens, UniProt O95977); test: Intracellular Ca2+ release (method 1), agonist potency, S1P4; settings: CHO-K1 cells expressing human S1PR4
T4 construct: host or cells: CHO-K1
T4 sequence (O95977 1-384): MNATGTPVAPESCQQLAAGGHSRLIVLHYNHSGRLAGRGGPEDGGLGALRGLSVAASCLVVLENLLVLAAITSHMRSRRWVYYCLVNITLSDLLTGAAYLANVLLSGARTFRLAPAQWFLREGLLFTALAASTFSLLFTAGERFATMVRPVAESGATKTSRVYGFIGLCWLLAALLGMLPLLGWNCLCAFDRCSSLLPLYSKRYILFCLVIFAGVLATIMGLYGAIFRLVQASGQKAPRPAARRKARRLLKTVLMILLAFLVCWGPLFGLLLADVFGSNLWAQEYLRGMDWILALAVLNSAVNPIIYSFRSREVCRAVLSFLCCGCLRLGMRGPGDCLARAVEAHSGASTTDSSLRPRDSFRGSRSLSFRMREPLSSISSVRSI
In short: as §1

Row | Structure (SMILES) | Emax [1] [%] | EC50 [1] [nM] | EC50 ([2]; cells given as bound) [nM] | EC50 [3] [nM] | EC50 [4] [nM] | EC50 ([4]; cells given as bound) [nM] | EC50 [2] [nM]
1 | Cc1ccccc1C#Cc1ccc2c(c1)C1(CC1)CN(CCC(=O)O)C2 [Compound 37, 3-(6′-(o-tolylethynyl)-1′H-spiro[cyclopropane-1,4′-isoquinolin]-2′(3′H)-yl)propanoic acid acetic acid salt (1:1)] | 50 to 100 | 10 to 100 | > 1000 | > 1000 | 100 to 1000 |  | 
2 | O=C(O)CCN1Cc2ccc(C#Cc3ccsc3)cc2C2(CC2)C1 [Compound 38, 3-(6′-(thiophen-3-ylethynyl)-1′H-spiro[cyclopropane-1,4′-isoquinolin]-2′(3′H)-yl)propanoic acid] | 50 to 100 | 10 to 100 | > 1000 | > 1000 |  | > 1000 | 
3 | O=C(O)CCN1Cc2ccc(C#Cc3ccccc3)cc2C2(CC2)C1 [Compound 39, 3-(6′-(phenylethynyl)-1′H-spiro[cyclopropane-1,4′-isoquinolin]-2′(3′H)-yl)propanoic acid acetic acid salt (1:1)] | 50 to 100 | 100 to 1000 | > 1000 | > 1000 |  | > 1000 | 
4 | O=C(O)CCN1Cc2ccc(C#Cc3cccc(Cl)n3)cc2C2(CC2)C1 [Compound 40, 3-(6′-((6-chloropyridin-2-yl)ethynyl)-1′H-spiro[cyclopropane-1,4′-isoquinolin]-2′(3′H)-yl)propanoic acid acetic acid salt (1:1)] | 50 to 100 | 100 to 1000 | > 1000 | > 1000 | 100 to 1000 |  | 
5 | O=C(O)CCN1Cc2ccc(C#Cc3ccc(F)cc3)cc2C2(CC2)C1 [Compound 41, 3-(6′-((4-fluorophenyl)ethynyl)-1′H-spiro[cyclopropane-1,4′-isoquinolin]-2′(3′H)-yl)propanoic acid acetic acid salt (1:1)] | < 50 | 1000 to 10000 | > 1000 | > 1000 |  | > 1000 | 
6 | CCCn1cc(C#Cc2ccc3c(c2)C2(CC2)CN(CCC(=O)O)C3)cn1 [Compound 42, 3-(6′-((1-propyl-1H-pyrazol-4-yl)ethynyl)-1′H-spiro[cyclopropane-1,4′-isoquinolin]-2′(3′H)-yl)propanoic acid acetic acid salt (1:1)] | 50 to 100 | 1000 to 10000 | > 1000 | > 1000 |  | > 1000 | 
7 | Cc1cccnc1C#Cc1ccc2c(c1)C1(CC1)CN(CCC(=O)O)C2 [Compound 43, 3-(6′-((3-methylpyridin-2-yl)ethynyl)-1′H-spiro[cyclopropane-1,4′-isoquinolin]-2′(3′H)-yl)propanoic acid acetic acid salt (1:1)] | 50 to 100 | 1000 to 10000 | > 1000 | > 1000 |  | > 1000 | 
8 | O=C(O)CCCN1Cc2ccc(C#Cc3ccc(OC4CCCC4)cc3)cc2C2(CC2)C1 [Compound 44, 4-(6′-((4-(cyclopentyloxy)phenyl)ethynyl)-1′H-spiro[cyclopropane-1,4′-isoquinolin]-2′(3′H)-yl)butanoic acid] | > 100 | < 10 |  | > 1000 |  | > 1000 | 100 to 1000
9 | CCOc1ccc(C#Cc2ccc3c(c2)C2(CC2)CN(CCCC(=O)O)C3)cc1F [Compound 45, 4-(6′-((4-ethoxy-3-fluorophenyl)ethynyl)-1′H-spiro[cyclopropane-1,4′-isoquinolin]-2′(3′H)-yl)butanoic acid] | 50 to 100 | < 10 | > 1000 | > 1000 |  | > 1000 | 
10 | CC(C)Oc1ccc(C#Cc2ccc3c(c2)C2(CC2)CN(CCCC(=O)O)C3)cc1 [Compound 46, 4-(6′-((4-isopropoxyphenyl)ethynyl)-1′H-spiro[cyclopropane-1,4′-isoquinolin]-2′(3′H)-yl)butanoic acid] | > 100 | < 10 | > 1000 | > 1000 |  | > 1000 | 
11 | O=C(O)CCCN1Cc2ccc(C#Cc3ccc(OC(F)(F)F)c(F)c3)cc2C2(CC2)C1 [Compound 47, 4-(6′-((3-fluoro-4-(trifluoromethoxy)phenyl)ethynyl)-1′H-spiro[cyclopropane-1,4′-isoquinolin]-2′(3′H)-yl)butanoic acid] | > 100 | < 10 | > 1000 | > 1000 |  | > 1000 | 
12 | O=C(O)CCCN1Cc2ccc(C#Cc3ccc(OC(F)(F)F)cc3)cc2C2(CC2)C1 [Compound 48, 4-(6′-((4-(trifluoromethoxy)phenyl)ethynyl)-1′H-spiro[cyclopropane-1,4′-isoquinolin]-2′(3′H)-yl)butanoic acid] | 50 to 100 | 10 to 100 | > 1000 | > 1000 |  | > 1000 | 
13 | CC(CC(=O)O)CN1Cc2ccc(C#Cc3c(F)cccc3F)cc2C2(CC2)C1 (centres unmarked) [Compound 58, 4-(6′-((2,6-difluorophenyl)ethynyl)-1′H-spiro[cyclopropane-1,4′-isoquinolin]-2′(3′H)-yl)-3-methylbutanoic acid] | 50 to 100 | < 10 | > 1000 | > 1000 | 100 to 1000 |  | 
